From patent US10577363B2, “Substituted piperidine compounds” (EPIZYME, INC., priority 2014, dated 2020)

Key:
[1] = biological target: T1, SMYD3 (Homo sapiens (Human), UniProt Q9H7B4); assay: SMYD3 biochemical assay (SPA, 3H-SAM methylation of MEKK2 protein substrate); conditions: read-out: SMYD3 Biochem IC50*
Procedure, shortened: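 Full-length native human SMYD3 (E. coli-expressed, tags removed) preincubated with compounds 30 min at room temperature, then reaction started with 3H-SAM and GST-tagged MEKK2 protein in 25 mM Tris-Cl pH 8.0, 1 mM TCEP, 0.005% BSG, 0.005% Tween 20. Quenched with unlabelled SAM (100 uM final); 3H-MEKK2 counted by SPA.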

[2] = biological target: T1, SMYD3; assay: SMYD3 cell assay (Trimethyl-MEKK2 In-Cell Western in 293T/17 cells); format: cell-based; conditions: read-out: SMYD3 Cell IC50*
Procedure, shortened: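 In-Cell Western ratio of trimethyl-Lys260 MEKK2 to anti-flag signal; percent inhibition from DMSO and maximum-inhibition controls, IC50 by non-linear regression, triplicates.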

T1 sequence (Q9H7B4 whole entry): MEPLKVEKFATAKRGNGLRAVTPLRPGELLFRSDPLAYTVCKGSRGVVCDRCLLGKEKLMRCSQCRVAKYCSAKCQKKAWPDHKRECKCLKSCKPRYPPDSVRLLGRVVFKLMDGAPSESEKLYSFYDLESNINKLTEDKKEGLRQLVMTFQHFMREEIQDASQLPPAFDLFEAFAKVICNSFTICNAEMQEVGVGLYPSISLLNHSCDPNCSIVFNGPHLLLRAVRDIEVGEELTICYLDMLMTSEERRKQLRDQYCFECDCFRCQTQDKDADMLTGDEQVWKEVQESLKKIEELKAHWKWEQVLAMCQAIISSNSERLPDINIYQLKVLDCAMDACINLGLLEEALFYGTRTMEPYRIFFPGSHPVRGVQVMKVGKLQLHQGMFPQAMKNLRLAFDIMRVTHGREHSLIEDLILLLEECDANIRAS

Structure (SMILES)	IC50 [1]	IC50 [2]
CN[C@H]1CC[C@@H](S(=O)(=O)N2CC[C@@H](NC(=O)c3cc(C4CC4)on3)[C@@H](C)C2)CC1 [compound 900, 5-cyclopropyl-N-((3S,4R)-3-methyl-1-(((1s,4R)-4-(methylamino)cyclohexyl)sulfonyl)piperidin-4-yl)isoxazole-3-carboxamide]	0.0146 µM	0.177 µM
CC1CNCCN1S(=O)(=O)N1[C@@H]2CC[C@H]1C[C@@H](NC(=O)c1cc(C3CC3)on1)C2 (stereo partly drawn) [compound 901, 5-cyclopropyl-N-((1R,3r,5S)-8-((2-methylpiperazin-1-yl)sulfonyl)-8-azabicyclo[3.2.1]octan-3-yl)isoxazole-3-carboxamide]	0.0151 µM	0.0977 µM
CCC1CNCCN1S(=O)(=O)N1[C@@H]2CC[C@H]1C[C@@H](NC(=O)c1cc(C3CC3)on1)C2 (stereo partly drawn) [compound 902, 5-cyclopropyl-N-((1R,3r,5S)-8-((2-ethylpiperazin-1-yl)sulfonyl)-8-azabicyclo[3.2.1]octan-3-yl)isoxazole-3-carboxamide]	0.0152 µM	0.155 µM
CC1CC(CS(=O)(=O)N2CC[C@H](NC(=O)c3cc(C4CC4)on3)C[C@@H]2C)CC(C)N1 (stereo partly drawn) [compound 903, 5-cyclopropyl-N-((2S,4S)-1-(((2,6-dimethylpiperidin-4-yl)methyl)sulfonyl)-2-methylpiperidin-4-yl)isoxazole-3-carboxamide]	0.0162 µM	0.277 µM
O=C(N[C@H]1C[C@H]2CC[C@@H](C1)N2S(=O)(=O)N1CC2CCC(C1)N2Cc1ccccc1)c1cc(C2CC2)on1 [compound 904, N-((1R,3r,5S)-8-((8-benzyl-3,8-diazabicyclo[3.2.1]octan-3-yl)sulfonyl)-8-azabicyclo[3.2.1]octan-3-yl)-5-cyclopropylisoxazole-3-carboxamide]	0.0169 µM	0.395 µM
C[C@H](NC1CCN(S(=O)(=O)N2CC[C@H](NC(=O)c3cc(C4CC4)on3)C[C@@H]2C)CC1)c1ccccc1 [compound 905, 5-cyclopropyl-N-((2S,4S)-2-methyl-1-((4-(((S)-1-phenylethyl)amino)piperidin-1-yl)sulfonyl)piperidin-4-yl)isoxazole-3-carboxamide]	0.0171 µM	0.331 µM
O=C(N[C@H]1C[C@H]2CC[C@@H](C1)N2S(=O)(=O)N1CCC(N2CCCC2)CC1)c1cc(C2CC2)on1 [compound 906, 5-cyclopropyl-N-((1R,3r,5S)-8-((4-(pyrrolidin-1-yl)piperidin-1-yl)sulfonyl)-8-azabicyclo[3.2.1]octan-3-yl)isoxazole-3-carboxamide]	0.0171 µM	0.229 µM
CC1CN(S(=O)(=O)N2[C@@H]3CC[C@H]2C[C@@H](NC(=O)c2cc(C4CC4)on2)C3)C(C)CN1 (stereo partly drawn) [compound 907, 5-cyclopropyl-N-((1R,3r,5S)-8-((2,5-dimethylpiperazin-1-yl)sulfonyl)-8-azabicyclo[3.2.1]octan-3-yl)isoxazole-3-carboxamide]	0.0177 µM	0.238 µM
C[C@H]1C[C@@H](NC(=O)c2cc(C3CC3)on2)CCN1S(=O)(=O)N1CCC(NCCN2CCOCC2)CC1 [compound 908, 5-cyclopropyl-N-((2S,4S)-2-methyl-1-((4-((2-morpholinoethyl)amino)piperidin-1-yl)sulfonyl)piperidin-4-yl)isoxazole-3-carboxamide]	0.0184 µM	0.253 µM
C[C@H]1C[C@@H](NC(=O)c2cc(C3CC3)on2)CCN1S(=O)(=O)[C@@H]1CCCNC1 [compound 910, 5-cyclopropyl-N-((2S,4S)-2-methyl-1-(((R)-piperidin-3-yl)sulfonyl)piperidin-4-yl)isoxazole-3-carboxamide]	0.019 µM	0.186 µM
CC(C)c1cc(C(=O)N[C@H]2C[C@H]3CC[C@@H](C2)N3S(=O)(=O)N2CCC(N)CC2)no1 [compound 911, N-((1R,3r,5S)-8-((4-aminopiperidin-1-yl)sulfonyl)-8-azabicyclo[3.2.1]octan-3-yl)-5-isopropylisoxazole-3-carboxamide]	0.0205 µM	0.144 µM
O=C(N[C@H]1C[C@H]2CC[C@@H](C1)N2S(=O)(=O)N1CCC(NCCCN2CCOCC2)CC1)c1cc(C2CC2)on1 [compound 912, 5-cyclopropyl-N-((1R,3r,5S)-8-((4-((3-morpholinopropyl)amino)piperidin-1-yl)sulfonyl)-8-azabicyclo[3.2.1]octan-3-yl)isoxazole-3-carboxamide]	0.0209 µM	0.316 µM
C[C@H]1C[C@@H](NC(=O)c2cc(C3CC3)on2)CCN1S(=O)(=O)[C@H]1CCCNC1 [compound 913, 5-cyclopropyl-N-((2S,4S)-2-methyl-1-(((S)-piperidin-3-yl)sulfonyl)piperidin-4-yl)isoxazole-3-carboxamide]	0.0216 µM	0.255 µM
O=C(N[C@H]1C[C@H]2CC[C@@H](C1)N2S(=O)(=O)N1CC2CCC(C1)N2CCCC(F)(F)F)c1cc(C2CC2)on1 [compound 914, 5-cyclopropyl-N-((1R,3r,5S)-8-((8-(4,4,4-trifluorobutyl)-3,8-diazabicyclo[3.2.1]octan-3-yl)sulfonyl)-8-azabicyclo[3.2.1]octan-3-yl)isoxazole-3-carboxamide]	0.0229 µM	0.299 µM
C[C@H]1CN(S(=O)(=O)N2[C@@H]3CC[C@H]2C[C@@H](NC(=O)c2cc(C4CC4)on2)C3)[C@@H](C)CN1 [compound 915, 5-cyclopropyl-N-((1R,3S,5S)-8-(((2S,5S)-2,5-dimethylpiperazin-1-yl)sulfonyl)-8-azabicyclo[3.2.1]octan-3-yl)isoxazole-3-carboxamide]	0.0232 µM	0.231 µM
COCCN(C)C1CCN(S(=O)(=O)N2[C@@H]3CC[C@H]2C[C@@H](NC(=O)c2cc(C4CC4)on2)C3)CC1 [compound 916, 5-cyclopropyl-N-((1R,3r,5S)-8-((4-((2-methoxyethyl)(methyl)amino)piperidin-1-yl)sulfonyl)-8-azabicyclo[3.2.1]octan-3-yl)isoxazole-3-carboxamide]	0.0233 µM	0.247 µM
CN(CCN1CCCC1)C1CCN(S(=O)(=O)N2[C@@H]3CC[C@H]2C[C@@H](NC(=O)c2cc(C4CC4)on2)C3)CC1 [compound 917, 5-cyclopropyl-N-((1R,3r,5S)-8-((4-(methyl(2-(pyrrolidin-1-yl)ethyl)amino)piperidin-1-yl)sulfonyl)-8-azabicyclo[3.2.1]octan-3-yl)isoxazole-3-carboxamide]	0.0249 µM	0.379 µM
O=C(N[C@H]1C[C@H]2CC[C@@H](C1)N2S(=O)(=O)N1CCC(NCCC(F)(F)F)CC1)c1cc(C2CC2)on1 [compound 918, 5-cyclopropyl-N-((1R,3r,5S)-8-((4-((3,3,3-trifluoropropyl)amino)piperidin-1-yl)sulfonyl)-8-azabicyclo[3.2.1]octan-3-yl)isoxazole-3-carboxamide]	0.025 µM	0.148 µM
O=C(N[C@H]1C[C@H]2CC[C@@H](C1)N2S(=O)(=O)C[C@@H]1CCCCN1)c1cc(C2CC2)on1 [compound 919, 5-cyclopropyl-N-((1R,3S,5S)-8-((((S)-piperidin-2-yl)methyl)sulfonyl)-8-azabicyclo[3.2.1]octan-3-yl)isoxazole-3-carboxamide]	0.0254 µM	0.243 µM
O=C(N[C@H]1C[C@H]2CC[C@@H](C1)N2S(=O)(=O)[C@H]1CC[C@@H](NCCN2CCOCC2)CC1)c1cc(C2CC2)on1 [compound 920, 5-cyclopropyl-N-((1R,3R,5S)-8-(((1s,4S)-4-((2-morpholinoethyl)amino)cyclohexyl)sulfonyl)-8-azabicyclo[3.2.1]octan-3-yl)isoxazole-3-carboxamide]	0.0266 µM	0.499 µM
CN(CCO)C1CCN(CCS(=O)(=O)N2[C@@H]3CC[C@H]2C[C@@H](NC(=O)c2cc(C4CC4)on2)C3)C1 (stereo partly drawn) [compound 921, 5-cyclopropyl-N-((1R,3r,5S)-8-((2-(3-((2-hydroxyethyl)(methyl)amino)pyrrolidin-1-yl)ethyl)sulfonyl)-8-azabicyclo[3.2.1]octan-3-yl)isoxazole-3-carboxamide]	0.0277 µM	0.373 µM
O=C(N[C@H]1C[C@H]2CC[C@@H](C1)N2S(=O)(=O)N1CCC(NCCN2CCCC2)CC1)c1cc(C2CC2)on1 [compound 922, 5-cyclopropyl-N-((1R,3r,5S)-8-((4-((2-(pyrrolidin-1-yl)ethyl)amino)piperidin-1-yl)sulfonyl)-8-azabicyclo[3.2.1]octan-3-yl)isoxazole-3-carboxamide]	0.0281 µM	0.282 µM
C[C@@H](NC1CCN(S(=O)(=O)N2[C@@H]3CC[C@H]2C[C@@H](NC(=O)c2cc(C4CC4)on2)C3)CC1)c1ccccc1 [compound 923, 5-cyclopropyl-N-((1R,3R,5S)-8-((4-(((R)-1-phenylethyl)amino)piperidin-1-yl)sulfonyl)-8-azabicyclo[3.2.1]octan-3-yl)isoxazole-3-carboxamide]	0.0286 µM	0.31 µM
O=C(N[C@H]1C[C@H]2CC[C@@H](C1)N2S(=O)(=O)N1CCC(NCc2c(F)cccc2F)CC1)c1cc(C2CC2)on1 [compound 924, 5-cyclopropyl-N-((1R,3r,5S)-8-((4-((2,6-difluorobenzyl)amino)piperidin-1-yl)sulfonyl)-8-azabicyclo[3.2.1]octan-3-yl)isoxazole-3-carboxamide]	0.0289 µM	0.67 µM
CC(C)C1CN(S(=O)(=O)N2[C@@H]3CC[C@H]2C[C@@H](NC(=O)c2cc(C4CC4)on2)C3)CCN1 (stereo partly drawn) [compound 925, 5-cyclopropyl-N-((1R,3r,5S)-8-((3-isopropylpiperazin-1-yl)sulfonyl)-8-azabicyclo[3.2.1]octan-3-yl)isoxazole-3-carboxamide]	0.0299 µM	0.34 µM
